Data as given in patent US20110251379A1, “COMPOUNDS USEFUL FOR TREATING NEURODEGENERATIVE DISORDERS” (Satori Pharmaceuticals, Inc., priority 2010, published 2011).
Where two headings read alike, the source gives them in different places.

Key:
Format in all cases: cell-based
Aβ-38 = assay: MSD Human (6E10) Ab 3-PLEX elisa, conditioned media of 2B7 cells: Aβ-38; conditions: Homo sapiens, Aβ-38 (superscript a)
Description: (§1) Assays were conducted to determine the ability of a Compound of Formula I to modulate […], and Aβ-38.
(§2) Plates with capture antibodies were blocked for 1-2 hours at room temperature with 150 μL of the manufactures blocking reagent.
(§3) Conditioned Media: • Cultured 2B7 cells in 96 well plate with 250 uL of media per well until confluent; • Prepared serial dilutions of compounds in DMSO at 100× the final desired concentration; • Washed wells with 2B7 cells 1× with 250 uL of media; • Diluted DMSO stocks 1:100 into media: • Added 250 μL of media containing compounds (1% DMSO) to wells with 2B7 cells for 5 hours at 37° C.
(§4) Elisa Sample Prep: • Diluted conditioned media: 1 part media with 1% DMSO and 1 part blocking buffer; • 150 μL of the 250 μL of conditioned media were used.
(§5) […] CURVE SAMPLE PREP: Prepared per manufacturer's protocol (see above) • Seven point standard curve samples were prepared that contained Aβ-42, Aβ-40, and Aβ-38. The highest concentration of Aβ-42 and Aβ-3-38 was 3,000 pg/mL and the highest concentration of Aβ-40 was 10,000 pg/mL. Subsequent serial dilutions were 1:3 and the final composition of each sample was 1 part blocking buffer and 1 part cell medium containing 1% DMSO.
(§6) Overnight Sample Incubation: • Blocked plates are washed 5× with MSD wash buffer with a plate washer • 25 uL of detection antibody and blocker G reagent in MSD blocking solution is added • 25 uL of samples (1 part conditioned media containing 1% DMSO and 1 part MSD blocking buffer) are then added. • plates are incubated overnight at 4 degrees C. or 2 hours at room temp
(§7) Final Wash and Readout: • Wash wells 5× with MSD wash buffer • Added 150 μL 2×MSD read buffer • Read with MSD imager.
(§8) A-Beta peptide levels for each peptide are calculated from the standard curve using the MSD software provided with the MSD 2400 Imager. Percent vehicle values for each compound dosage were then calculated and fit to a 4 parameter curve generating IC50 values.

Aβ-40 = assay: MSD Human (6E10) Ab 3-PLEX elisa, conditioned media of 2B7 cells: Aβ-40; conditions: Homo sapiens; for IC50: Aβ-40 (superscript b); for inhibition at 20 µM: Aβ-40, 20 μM
Description: as §1, §2, §3, §4, §5, §6, §7, §8

Aβ-42 = assay: MSD Human (6E10) Ab 3-PLEX elisa, conditioned media of 2B7 cells: Aβ-42; conditions: Homo sapiens; for inhibition at 20 µM: Aβ-42, 20 μM; for IC50: Aβ-42 (superscript c)
Description: as §1, §2, §3, §4, §5, §6, §7, §8

Row | Structure (SMILES) | IC50 (Aβ-38; read-out: 50% reduction value) [nM] | IC50 (Aβ-40; read-out: 50% reduction value) [nM] | inhibition at 20 µM (Aβ-42) [%] | IC50 (Aβ-38; read-out: IC50 range) [nM] | IC50 (Aβ-40; read-out: IC50 range) [nM] | IC50 (Aβ-42; read-out: 50% reduction value) [nM] | IC50 (Aβ-42; read-out: IC50 range) [nM] | inhibition at 20 µM (Aβ-40) [%]
1 | CCOC(C)(C)[C@H](O)C1C[C@@H](C)[C@H]2C(O1)[C@H](O)[C@@]1(C)C3CC[C@H]4C(C)(C)C(O)CC[C@@]45C[C@@]35CC[C@]21C (stereo partly shown) | 1000 to 10000 | > 10000 | < 25 |  |  |  |  | 
2 | CC(C)C(=O)N1CCOC(OC2CC[C@]34C[C@]35CC[C@]3(C)[C@@H]6C(OC([C@H](OC(=O)N7CCC7)C(C)C)C[C@H]6C)[C@H](O)[C@@]3(C)C5CC[C@H]4C2(C)C)C1 (stereo partly shown) | < 1000 | 1000 to 10000 |  | < 1000 | > 10000 | < 1000 | < 1000 | 
3 | CC(C)CC(=O)N1CCOC(OC2CC[C@]34C[C@]35CC[C@]3(C)[C@@H]6C(OC([C@H](OC(=O)N7CCC7)C(C)C)C[C@H]6C)[C@H](O)[C@@]3(C)C5CC[C@H]4C2(C)C)C1 (stereo partly shown) | 1000 to 10000 | 1000 to 10000 |  | 1000 to 10000 | 1000 to 10000 | 1000 to 10000 | 1000 to 10000 | 
4 | CC(C)[C@@H](OC(=O)N1CCC1)C1C[C@@H](C)[C@H]2C(O1)[C@H](O)[C@@]1(C)C3CC[C@H]4C(C)(C)C(OC(=O)N5CC(NCC(F)(F)F)C5)CC[C@@]45C[C@@]35CC[C@]21C (stereo partly shown) | 1000 to 10000 | > 10000 |  |  |  | < 1000 |  | 
5 | CS[C@@H](C1C[C@@H](C)[C@H]2C(O1)[C@H](O)[C@@]1(C)C3CC[C@H]4C(C)(C)C(O)CC[C@@]45C[C@@]35CC[C@]21C)C(C)(C)O (stereo partly shown) | < 1000 | > 10000 |  |  |  | 1000 to 10000 |  | 
6 | C[C@@H]1CC([C@H]([S+](C)[O-])C(C)(C)O)OC2[C@H]1[C@@]1(C)CC[C@@]34C[C@@]35CCC(O)C(C)(C)[C@@H]5CCC4[C@]1(C)[C@H]2O (stereo partly shown) | 1000 to 10000 |  | 25 to 75 |  |  |  |  | 25 to 75
7 | C[C@@H]1CC([C@@H](C(C)(C)O)S(C)(=O)=O)OC2[C@H]1[C@@]1(C)CC[C@@]34C[C@@]35CCC(O)C(C)(C)[C@@H]5CCC4[C@]1(C)[C@H]2O (stereo partly shown) | 1000 to 10000 |  | 25 to 75 |  |  |  |  | 25 to 75
8 | CC[S+]([O-])[C@@H](C1C[C@@H](C)[C@H]2C(O1)[C@H](O)[C@@]1(C)C3CC[C@H]4C(C)(C)C(O[C@H]5CN(C6COC6)CCO5)CC[C@@]45C[C@@]35CC[C@]21C)C(C)(C)O (stereo partly shown) | 1000 to 10000 |  | 25 to 75 |  |  |  |  | 25 to 75
9 | CO[C@@H](C1C[C@@H](C)[C@H]2C(O1)[C@H](O)[C@@]1(C)C3CC[C@H]4C(C)(C)C(OC(=O)N5CCC5)CC[C@@]45C[C@@]35CC[C@]21C)C(C)(C)O (stereo partly shown) | 1000 to 10000 | > 10000 |  |  |  | 1000 to 10000 |  | 
10 | CNC(=O)O[C@H](C(C)C)C1C[C@@H](C)[C@H]2C(O1)[C@H](O)[C@@]1(C)C3CC[C@H]4C(C)(C)C(OC(=O)NC5CNC5)CC[C@@]45C[C@@]35CC[C@]21C (stereo partly shown) | < 1000 | 1000 to 10000 |  |  |  | < 1000 | < 1000 | 
11 | CCO[C@@H]([C@H]1C[C@@H](C)[C@H]2[C@H](O1)[C@H](O)[C@@]1(C)[C@@H]3CC[C@H]4C(C)(C)[C@@H](OC(=O)NC5CN(C)C5)CC[C@@]45C[C@@]35CC[C@]21C)C(C)(C)O | < 1000 | < 1000 |  | < 1000 | 1000 to 10000 | < 1000 | < 1000 | 
12 | CCO[C@@H]([C@H]1C[C@@H](C)[C@H]2[C@H](O1)[C@H](O)[C@@]1(C)[C@@H]3CC[C@H]4C(C)(C)[C@@H](OC5CNCCO5)CC[C@@]45C[C@@]35CC[C@]21C)C(C)(C)O (stereo partly shown) | < 1000 | 1000 to 10000 |  | < 1000 | 1000 to 10000 | < 1000 | < 1000 | 
13 | CCO[C@@H]([C@H]1C[C@@H](C)[C@H]2[C@H](O1)[C@H](O)[C@@]1(C)[C@@H]3CC[C@H]4C(C)(C)[C@@H](OC5CN(C)CCO5)CC[C@@]45C[C@@]35CC[C@]21C)C(C)(C)O (stereo partly shown) | < 1000 | 1000 to 10000 |  | < 1000 | 1000 to 10000 | < 1000 | < 1000 | 
14 | CCO[C@@H]([C@H]1C[C@@H](C)[C@H]2[C@H](O1)[C@H](O)[C@@]1(C)[C@@H]3CC[C@H]4C(C)(C)[C@@H](OC5CN(C(=O)C(C)C)CCO5)CC[C@@]45C[C@@]35CC[C@]21C)C(C)(C)O (stereo partly shown) | < 1000 | 1000 to 10000 |  | < 1000 | 1000 to 10000 | < 1000 | < 1000 | 
